The experiment concerns the target T1, human liver GK (Homo sapiens, UniProt P35557).
T1 construct: GST (glutathione S-transferase) (N); made in house; host or cells: E. coli
T1 sequence (P35557 1-466 isoform P35557-2): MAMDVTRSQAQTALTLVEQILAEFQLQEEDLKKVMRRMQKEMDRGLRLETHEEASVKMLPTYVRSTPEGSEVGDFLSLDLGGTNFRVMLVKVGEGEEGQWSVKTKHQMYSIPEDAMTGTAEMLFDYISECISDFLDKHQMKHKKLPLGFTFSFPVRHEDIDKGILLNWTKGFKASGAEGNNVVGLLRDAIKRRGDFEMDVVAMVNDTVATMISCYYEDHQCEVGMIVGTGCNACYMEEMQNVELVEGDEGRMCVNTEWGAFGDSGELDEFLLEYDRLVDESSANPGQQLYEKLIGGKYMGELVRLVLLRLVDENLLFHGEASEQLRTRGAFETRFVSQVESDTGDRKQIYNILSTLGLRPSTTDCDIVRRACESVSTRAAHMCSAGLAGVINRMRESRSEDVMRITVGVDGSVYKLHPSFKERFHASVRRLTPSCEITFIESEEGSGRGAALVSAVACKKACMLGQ
Briefly: GK activation test. In kind it is biochemical. The settings on record: test compound concentration needed to activate 50% of maximum activation ability; 4 mM 14C-labeled glucose, 2 mM ATP, room temperature, 20 minutes. An outline of the steps:
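GST-tagged human liver GK from E. coli (0.24 μg/well) with 4 mM 14C-glucose, 2 mM ATP in Hepes-KOH pH 7.1, KCl, MgCl2, DTT, 1% DMSO, 20 min room temperature. Labeled glucose 6-phosphate captured on anion resin, eluted and counted. EC50 = concentration giving half of maximal activation.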
What is called EC50 is the concentration that produces a half-maximal response. Lower therefore signals higher potency in that assay. For `CC(C)c1ccc(/C(=C\CN2CCOC2=O)c2ccc(Cl)c(=O)[nH]2)cc1` [Example 6-22, 3-Chloro-6-{(1E)-3-(2-oxo-1,3-oxazolidin-3-yl)-1-[4-(propan-2-yl)phenyl]prop-1-en-1-yl}pyridin-2(1H)-one], the EC50 was in the range of 500 to 3000 nM. In the case of `O=C1CC[C@H](/C=C(\c2ccc(OCCCCO)c(Cl)c2)c2ccc(C3CC3)c(=O)[nH]2)N1` [Example 4-11, 6-{(E)-1-[3-Chloro-4-(4-hydroxybutoxy)phenyl]-2-[(2R)-5-oxopyrrolidin-2-yl]ethenyl}-3-cyclopropylpyridin-2(1H)-one] it was 10 to 500 nM.

Regarding `CC(C)(C)c1ccc(/C(=C\[C@H]2CCC(=O)N2)c2ccc(CCc3ccccc3)c(=O)[nH]2)cc1` [Example 4-196, 6-{(E)-1-(4-tert-Butylphenyl)-2-[(2R)-5-oxopyrrolidin-2-yl]ethenyl}-3-(2-phenylethyl)pyridin-2(1H)-one], the concentration giving a half-maximal response (EC50) lay in the range of 10 to 500 nM. Under `CCSc1ccc(/C(=C\[C@H]2CCC(=O)N2)c2ccc(Cl)c(=O)[nH]2)cc1Cl` [Example 4-27, 3-Chloro-6-{(E)-1-[3-chloro-4-(ethylsulfanyl)phenyl]-2-[(2R)-5-oxopyrrolidin-2-yl]ethenyl}pyridin-2(1H)-one] stands 10 to 500 nM. Under `CCc1ccc(/C(=C/[C@H]2CCC(=O)C2)c2ccc(S(=O)(=O)CCCN(CC)CC)c(Cl)c2)[nH]c1=O` [Example 1-78, 6-{(E)-1-(3-Chloro-4-{[3-(diethylamino)propyl]sulfonyl}phenyl)-2-[(1S)-3-oxocyclopentyl]ethenyl}-3-ethylpyridin-2(1H)-one] stands 10 to 500 nM; under `COc1cc(/C(=C\[C@H]2CCC(=O)N2)c2ccc(C3CC3)c(=O)[nH]2)ccc1C(F)F` [Example 4-135, 3-Cyclopropyl-6-{(E)-1-[4-(difluoromethyl)-3-methoxyphenyl]-2-[(2R)-5-oxopyrrolidin-2-yl]ethenyl}pyridin-2(1H)-one], 10 to 500 nM. Compound `O=C1CC[C@H](/C=C(\c2ccc(S(=O)(=O)Cc3ccccc3)cc2)c2ccc(C3CC3)c(=O)[nH]2)N1` [Example 4-291, 6-{(E)-1-[4-(Benzylsulfonyl)phenyl]-2-[(2R)-5-oxopyrrolidin-2-yl]ethenyl}-3-cyclopropylpyridin-2(1H)-one] yielded an EC50 of 10 to 500 nM. Turning to `CCCOc1ccc(/C(=C\[C@H]2CCC(=O)N2)c2ccc(C3CC3)c(=O)[nH]2)cc1Cl` [Example 4-280, 6-{(E)-1-(3-Chloro-4-propoxyphenyl)-2-[(2R)-5-oxopyrrolidin-2-yl]ethenyl}-3-cyclopropylpyridin-2(1H)-one], the EC50 is 10 to 500 nM. Under `CC(C)(C)c1ccc(C(C[C@H]2CCC(=O)N2)c2ccc(OC(F)F)c(=O)[nH]2)cc1` (single isomer, unassigned) [Example 4-246] stands 500 to 3000 nM. `O=C1CC[C@H](C[C@@H](c2ccc(Cl)c(Cl)c2)c2ccc(C3CC3)c(=O)[nH]2)N1` [Example 4-208, 3-Cyclopropyl-6-{(1S)-1-(3,4-dichlorophenyl)-2-[(2R)-5-oxopyrrolidin-2-yl]ethyl}pyridin-2(1H)-one]: the EC50 is 3000 to 10000 nM. `CC(C)(C)c1ccc(/C(=C\[C@H]2CCN(C(=O)C3CC3)C2)c2ccc(Cl)c(=O)[nH]2)cc1` [Example 4-92, 6-{(E)-1-(4-tert-Butylphenyl)-2-[(3R)-1-(cyclopropylcarbonyl)pyrrolidin-3-yl]ethenyl}-3-chloropyridin-2(1H)-one] displayed an EC50 of 10 to 500 nM. Under `Cc1ccc(C(C[C@H]2CCC(=O)N2)c2ccc(Cl)c(=O)[nH]2)cc1Cl` (single isomer, unassigned) [Example 4-311] stands 3000 to 10000 nM; under `CC(C)(C)c1ccc(/C(=C\Cc2nc(=O)o[nH]2)c2ccc(Cl)c(=O)[nH]2)cc1` [Example 6-23, 6-[(1E)-1-(4-tert-Butylphenyl)-3-(5-oxo-2,5-dihydro-1,2,4-oxadiazol-3-yl)prop-1-en-1-yl]-3-chloropyridin-2(1H)-one], 3000 to 10000 nM; under `O=C1CC[C@H](CC(c2ccc(C3CC3)c(=O)[nH]2)c2ccc(Cl)cc2F)N1` (single isomer, unassigned) [Example 4-335], 3000 to 10000 nM. Under `CC(C)(C)c1ccc(/C(=C\[C@H]2CCC(=O)N2)c2ccc(-c3ccncc3)c(=O)[nH]2)cc1` [Example 4-179, 6-{(E)-1-(4-tert-Butylphenyl)-2-[(2R)-5-oxopyrrolidin-2-yl]ethenyl}-3,4′-bipyridin-2(1H)-one] stands 10 to 500 nM; under `CCN(CC)CCCOc1ccc(/C(=C\[C@H]2CCC(=O)N2)c2ccc(C3CC3)c(=O)[nH]2)cc1` [Example 4-65, 3-Cyclopropyl-6-{(E)-1-{4-[3-(diethylamino)propoxy]phenyl}-2-[(2R)-5-oxopyrrolidin-2-yl]ethenyl}pyridin-2(1H)-one], 500 to 3000 nM; under `CC(C)(C)c1ccc(C(C[C@H]2CCC(=O)N2)c2ccc(Cl)c(=O)[nH]2)cc1` (single isomer, unassigned) [Example 4-70], 500 to 3000 nM. In the case of `CCCOc1ccc(/C(=C\[C@H]2CCC(=O)N2)c2ccc(C3CC3)c(=O)[nH]2)cc1` [Example 4-279, 3-Cyclopropyl-6-[(E)-2-[(2R)-5-oxopyrrolidin-2-yl]-1-(4-propoxyphenyl)ethenyl]pyridin-2(1H)-one] it was 10 to 500 nM; in that of `CC(C)(C)c1ccc(/C(=C\N2CCCC2=O)c2ccc(Cl)c(=O)[nH]2)cc1` [Example 6-14, 6-[(E)-1-(4-tert-Butylphenyl)-2-(2-oxopyrrolidin-1-yl)ethenyl]-3-chloropyridin-2(1H)-one], 500 to 3000 nM; in that of `CS(=O)(=O)c1ccc(/C(=C\[C@H]2CCC(=O)N2)c2ccc(C3CC3)c(=O)[nH]2)cc1` [Example 4-53, 3-Cyclopropyl-6-{(E)-1-[4-(methylsulfonyl)phenyl]-2-[(2R)-5-oxopyrrolidin-2-yl]ethenyl}pyridin-2(1H)-one], 10 to 500 nM. As for `CCc1cc(/C(=C\[C@H]2CCC(=O)N2)c2ccc(C3CC3)c(=O)[nH]2)ccc1Cl` [Example 4-125, 6-{(E)-1-(4-Chloro-3-ethylphenyl)-2-[(2R)-5-oxopyrrolidin-2-yl]ethenyl}-3-cyclopropylpyridin-2(1H)-one], the EC50 lay in the range of 10 to 500 nM.

`O=c1[nH]c(/C(=C/CCCO)c2ccc(S(=O)(=O)C3CC3)cc2)ccc1C(F)(F)F` [Example 1-99, 6-{(1E)-1-[4-(Cyclopropylsulfonyl)phenyl]-5-hydroxypent-1-en-1-yl}-3-(trifluoromethyl)pyridin-2(1H)-one] displayed an EC50 of 500 to 3000 nM. As for `O=C1CC[C@H](/C=C(/c2ccc(Cl)c(=O)[nH]2)c2ccc(C(F)(F)F)cc2F)N1` [Example 4-262, 3-Chloro-6-{(E)-1-[2-fluoro-4-(trifluoromethyl)phenyl]-2-[(2R)-5-oxopyrrolidin-2-yl]ethenyl}pyridin-2(1H)-one], the concentration for a half-maximal effect (EC50) fell in the range of 500 to 3000 nM. The compound `Cc1ccc(C(C[C@H]2CCC(=O)N2)c2ccc(C3CC3)c(=O)[nH]2)cc1` (single isomer, unassigned) [Example 4-294] returned an EC50 of 500 to 3000 nM. In the case of `Cc1ccc(/C(=C/C2CCCC2)c2ccc(S(C)(=O)=O)nc2)[nH]c1=O` [Example 1-35, 6-{(E)-2-Cyclopentyl-1-[6-(methylsulfonyl)pyridin-3-yl]ethenyl}-3-methylpyridin-2(1H)-one] it was 500 to 3000 nM.

Consider `CS(=O)(=O)c1ccc(/C(=C\[C@H]2CCC(=O)C2)c2ccc(C3CC3)c(=O)[nH]2)cc1` [Example 1-108, 3-Cyclopropyl-6-{(E)-1-[4-(methylsulfonyl)phenyl]-2-[(1S)-3-oxocyclopentyl]ethenyl}pyridin-2(1H)-one], for which the concentration giving a half-maximal response (EC50) fell in the range of 10 to 500 nM. As for `O=C1CC[C@H](CC(c2ccc(C(F)(F)F)cc2)c2ccc(C3CC3)c(=O)[nH]2)N1` (single isomer, unassigned) [Example 4-248], the EC50 is 500 to 3000 nM. As for `CSc1ccc(/C(=C\C2CCOC2)c2ccc(C3CC3)c(=O)[nH]2)cc1` (centres unmarked) [Example 1-47, 3-Cyclopropyl-6-[(E)-1-[4-(methylsulfanyl)phenyl]-2-(tetrahydrofuran-3-yl)ethenyl]pyridin-2(1H)-one], the EC50 was 10 to 500 nM. Under `CCc1ccc(/C(=C/C2CCCC2)c2ccc(OC)c(Cl)c2)[nH]c1=O` [Example 1-16, 6-[(E)-1-(3-Chloro-4-methoxyphenyl)-2-cyclopentylethenyl]-3-ethylpyridin-2(1H)-one] stands 10 to 500 nM; under `N#Cc1cc(/C(=C\[C@H]2CCC(=O)N2)c2ccc(C3CC3)c(=O)[nH]2)ccc1F` [Example 4-288, 5-{(E)-1-(5-Cyclopropyl-6-oxo-1,6-dihydropyridin-2-yl)-2-[(2R)-5-oxopyrrolidin-2-yl]ethenyl}-2-fluorobenzonitrile], 3000 to 10000 nM; under `CNC(=O)c1ccc(/C(=C\[C@H]2CCC(=O)N2)c2ccc(Cl)c(=O)[nH]2)cc1` [Example 4-159, 4-{(E)-1-(5-Chloro-6-oxo-1,6-dihydropyridin-2-yl)-2-[(2R)-5-oxopyrrolidin-2-yl]ethenyl}-N-methylbenzamide], 3000 to 10000 nM. For `CS(=O)(=O)c1ccc(/C(=C\[C@H]2CCC(=O)N2)c2ccc(Cl)c(=O)[nH]2)cc1C(F)(F)F` [Example 4-56, 3-Chloro-6-{(E)-1-[4-(methylsulfonyl)-3-(trifluoromethyl)phenyl]-2-[(2R)-5-oxopyrrolidin-2-yl]ethenyl}pyridin-2(1H)-one], the EC50 is 500 to 3000 nM.

The values are drawn from patent US8822503B2, “2-pyridone compounds” (Taisho Pharmaceutical Co., Ltd, priority 2009, dated 2014).
